These compounds were tested on HBV cccDNA (HBeAg level in HepDES19 cells) (assay: Engineered HepDES19 primary screen assay (HBeAg ELISA as surrogate marker for cccDNA)). Details: Hepatitis B virus, HepDES19, 120 h.
Format: cell-based
From the text: The assay was employed to screen for novel HBV cccDNA inhibitors. HepDES19 is a HBV cccDNA-producing cell line. In this cell line, HBeAg in the cell culture supernatant as surrogate marker, as HBeAg production depends on cccDNA level and activity. HepDES19 is an engineered cell line which contains a 1.1 unit length HBV genome, and pgRNA transcription from the transgene is controlled by Tetracycline (Tet). In the absence of Tet, pgRNA transcription will be induced, but HBV e antigen (HBeAg) could not be produced from this pgRNA due to very short leader sequence before the HBeAg start codon and the start codon is disrupted. Only after cccDNA is formed, the missing leader sequence and start codon mutation would be restored from the 3′-terminal redundancy of pgRNA, and then HBeAg could be synthesized. Therefore, HBeAg could be used as a surrogate marker for cccDNA (Zhou, T. et al., Antiviral Res. (2006), 72(2), 116-124; Guo, H. et al., J. Virol. (2007), 81(22), 12472-12484).
HepDES19 cells were seeded at 2×10^6 cells per T150 flask and cultured with the culture medium (Dulbecco's Modified Eagle Medium: Nutrient Mixture F-12 [DMEM-F12, Gibco Cat. 11320-82], 10% Fetal Bovine Serum [FBS, Clontech Cat. 631101], 0.1 mM Non-Essential Amino Acids Solution [NEAA, Gibco Cat. 11140-050], 50 μg/mL Penicillin-Streptomycin [PS, Invitrogen Cat. 15140-163], 500 μg/mL Geneticin [G418, Invitrogen Cat. 10131-027]) containing 3 μg/mL Tet (Sigma, Cat. 87128) for 5 days. Cells were then seeded at 4×10^6 cells per T150 in the same culture medium as described above in the absence of Tet for 8 days. Cells were then harvested and frozen at density of 2×10^6 cells per mL. For compound testing, the frozen cells were thawed and seeded into 96-well plates at a density of 6×10^4 cells per well. At 24 hrs after seeding, half log serial dilutions of compounds made with Dimethyl sulfoxide (DMSO, Sigma, Cat. D2650) were further diluted with the same culture medium as described above before they were added to the cells to reach desired final compound concentrations and 1% DMSO concentration. Plates were then incubated at 37° C. for another 5 days before measurement of HBeAg level and cell viability. Intracellular HBeAg level were measured with enzyme-linked immunosorbent assay (ELISA) kit (Shanghai Kehua Diagnostic Medical Products Co., Ltd). Cell viability was assessed using Cell Counting Kit-8 (Donjindo, Cat. CK04-20). IC50 values were derived from the dose-response curve using 4 parameter logistic curve fit method.
The compounds of the present invention were tested for their capacity to inhibit extracellular HBeAg level as described herein.
`Clc1cccc2cnc(-c3ccc(Br)cc3)nc12` [Example 1, 2-(4-Bromophenyl)-8-chloroquinazoline] was tested, and the IC50 was 0.1 µM. `Clc1cccc2cnc(-c3cccc(Br)c3)nc12` [Example 2, 2-(3-Bromophenyl)-8-chloroquinazoline] showed an IC50 of 0.36 µM. With `Cc1nc(-c2cccc(C(F)(F)F)c2)nc2cc(Br)ccc12` [Example 3, 7-Bromo-4-methyl-2-[3-(trifluoromethyl)phenyl]quinazoline] the IC50 was 0.75 µM. `Cc1nc(-c2cccc(Br)c2)nc2cc(C(F)(F)F)c(Cl)cc12` [Example 4, 2-(3-Bromophenyl)-6-chloro-4-methyl-7-(trifluoromethyl)quinazoline] was tested, and the IC50 was 3.62 µM. Work on `Oc1ccc(-c2ncc3cccc(Cl)c3n2)cc1` [Example 5, 4-(8-Chloroquinazolin-2-yl)phenol] yielded an IC50 of 4.35 µM. `COC(=O)c1cccc(COc2ccc(-c3ncc4cccc(Cl)c4n3)cc2)c1` [Example 6, Methyl 3-((4-(8-chloroquinazolin-2-yl)phenoxy)methyl)benzoate] gave an IC50 of 6.16 µM. For `O=C(O)c1cccc(COc2ccc(-c3ncc4cccc(Cl)c4n3)cc2)c1` [Example 7, 3-((4-(8-Chloroquinazolin-2-yl)phenoxy)methyl)benzoic acid], the IC50 was 0.22 µM. In the case of `Cc1nc(-c2ccc(OCc3cccc(C(=O)O)c3)cc2)nc2c(Cl)cccc12` [Example 8, 3-((4-(8-Chloro-4-methylquinazolin-2-yl)phenoxy)methyl)benzoic acid], the IC50 is reported as 0.46 µM. Work on `Cc1nc(-c2ccc(OCCO)cc2)nc2c(Cl)cccc12` [Example 9, 2-[4-(8-Chloro-4-methyl-quinazolin-2-yl)phenoxy]ethanol] yielded an IC50 of 1.93 µM. `COC(=O)COCCOc1ccc(-c2nc(C)c3cccc(Cl)c3n2)cc1` [Example 10, Methyl 2-[2-[4-(8-chloro-4-methyl-quinazolin-2-yl)phenoxy]ethoxy]acetate] gave an IC50 of 1.04 µM. Work on `Cc1nc(-c2ccc(OCCOCC(=O)O)cc2)nc2c(Cl)cccc12` [Example 11, 2-[2-[4-(8-Chloro-4-methyl-quinazolin-2-yl)phenoxy]ethoxy]acetic acid] yielded an IC50 of 4.49 µM. With `Cc1nc(-c2ccc(OCCO[C@H]3C[C@@H](C(=O)O)C3)cc2)nc2c(Cl)cccc12` [Example 12, cis-3-[2-[4-(8-Chloro-4-methyl-quinazolin-2-yl)phenoxy]ethoxy]cyclobutanecarboxylic acid] the IC50 was 0.063 µM. In the case of `Cc1nc(-c2ccc(Cl)cc2)nc2c(Cl)cccc12` [Example 13, 8-Chloro-2-(4-chlorophenyl)-4-methylquinazoline], the IC50 is reported as 1.03 µM. `Cc1nc(-c2ccc(OCCOCC(=O)O)cc2)nc2cc(C(F)(F)F)ccc12` [Example 14, 2-(2-(4-(4-Methyl-7-(trifluoromethyl)quinazolin-2-yl)phenoxy)ethoxy)acetic acid] gave an IC50 of 29.9 µM. Compound `Cc1nc(-c2ccc(OCCOC3CC(C(=O)O)C3)cc2)nc2cc(C(F)(F)F)ccc12` (centres unmarked) [Example 15, 3-(2-(4-(4-Methyl-7-(trifluoromethyl)quinazolin-2-yl)phenoxy)ethoxy) cyclobutanecarboxylic acid] has an IC50 of 0.06 µM. `COCc1nc(-c2cccc(Br)c2)nc2cc(C(F)(F)F)ccc12` [Example 16, 2-(3-Bromophenyl)-4-(methoxymethyl)-7-(trifluoromethyl)quinazoline] was tested, and the IC50 was 2.39 µM. Work on `CN(C)Cc1nc(-c2cccc(Br)c2)nc2cc(C(F)(F)F)ccc12` [Example 17, 1-(2-(3-Bromophenyl)-7-(trifluoromethyl)quinazolin-4-yl)-N,N-dimethylmethanamine] yielded an IC50 of 4.66 µM. Work on `FC(F)(F)c1ccc2c(CN3CCOCC3)nc(-c3cccc(Br)c3)nc2c1` [Example 18, 4-((2-(3-Bromophenyl)-7-(trifluoromethyl)quinazolin-4-yl)methyl)morpholine] yielded an IC50 of 1.93 µM. `OCc1nc(-c2cccc(Br)c2)nc2cc(C(F)(F)F)ccc12` [Example 20, (2-(3-Bromophenyl)-7-(trifluoromethyl)quinazolin-4-yl)methanol] showed an IC50 of 3.66 µM. With `OCc1nc(-c2ccc(Cl)cc2)nc2c(Cl)cccc12` [Example 21, (8-Chloro-2-(4-chlorophenyl)quinazolin-4-yl)methanol] the IC50 was 0.094 µM. Compound `Cc1nc(-c2cccc(CO)c2)nc2cc(C(F)(F)F)ccc12` [Example 22, (3-(4-Methyl-7-(trifluoromethyl)quinazolin-2-yl)phenyl)methanol] has an IC50 of 7.13 µM. Compound `Cc1nc(-c2ccc(Cl)nc2)nc2c(Cl)cccc12` [Example 23, 8-Chloro-2-(6-chloropyridin-3-yl)-4-methylquinazoline] has an IC50 of 0.22 µM. In the case of `Clc1ccc(-c2ncc3cccc(Cl)c3n2)cn1` [Example 24, 8-Chloro-2-(6-chloropyridin-3-yl)quinazoline], the IC50 is reported as 0.094 µM. `Oc1ccc(-c2ncc3cccc(Cl)c3n2)cn1` [Example 25, 5-(8-Chloroquinazolin-2-yl)pyridin-2-ol] was tested, and the IC50 was 4.68 µM. With `CN(C)c1ccc(-c2ncc3cccc(Cl)c3n2)cn1` [Example 26, 5-(8-Chloroquinazolin-2-yl)-N,N-dimethylpyridin-2-amine] the IC50 was 0.091 µM. In the case of `Clc1cccc2cnc(-c3ccc(N4CCOCC4)nc3)nc12` [Example 27, 4-(5-(8-Chloroquinazolin-2-yl)pyridin-2-yl)morpholine], the IC50 is reported as 0.59 µM. With `OCCN(CCO)c1ccc(-c2ncc3cccc(Cl)c3n2)cn1` [Example 28, 2,2′-((5-(8-Chloroquinazolin-2-yl)pyridin-2-yl)azanediyl)diethanol] the IC50 was 0.3 µM. `COC(=O)C1CCN(c2ccc(-c3ncc4cccc(Cl)c4n3)cn2)CC1` [Example 29, Methyl 1-(5-(8-chloroquinazolin-2-yl)pyridin-2-yl)piperidine-4-carboxylate] showed an IC50 of 1.23 µM. `O=C(O)C1CCN(c2ccc(-c3ncc4cccc(Cl)c4n3)cn2)CC1` [Example 30, 1-(5-(8-chloroquinazolin-2-yl)pyridin-2-yl)piperidine-4-carboxylic acid] gave an IC50 of 7.63 µM. For `O=C(O)c1nc(-c2cccc(Br)c2)nc2cc(C(F)(F)F)ccc12` [Example 31, 2-(3-Bromo-phenyl)-7-trifluoromethyl-quinazoline-4-carboxylic acid], the IC50 was 17.8 µM. `COC(=O)c1nc(-c2cccc(Br)c2)nc2cc(C(F)(F)F)ccc12` [Example 32, Methyl 2-(3-bromophenyl)-7-(trifluoromethyl)quinazoline-4-carboxylate] showed an IC50 of 6.19 µM. For `COc1ccc(-c2nc(C(=O)O)c3cccc(Cl)c3n2)cc1` [Example 33, 8-Chloro-2-(4-methoxyphenyl)quinazoline-4-carboxylic acid], the IC50 was 7.75 µM. Work on `COc1ccc(-c2nc(C(N)=O)c3cccc(Cl)c3n2)cc1` [Example 34, 8-chloro-2-(4-methoxyphenyl)quinazoline-4-carboxamide] yielded an IC50 of 2.22 µM. Work on `COc1ccc(-c2nc(C(=O)NCCO)c3cccc(Cl)c3n2)cc1` [Example 35, 8-Chloro-N-(2-hydroxyethyl)-2-(4-methoxyphenyl)quinazoline-4-carboxamide] yielded an IC50 of 16.1 µM. For `COc1ccc(-c2ncc3cccc(Cl)c3n2)cc1` [Example 36, 8-Chloro-2-(4-methoxyphenyl)quinazoline], the IC50 was 0.18 µM. Work on `O=C(O)c1nc(-c2ccc(Br)cc2)nc2c(Cl)cccc12` [Example 37, 2-(4-Bromophenyl)-8-chloroquinazoline-4-carboxylic acid] yielded an IC50 of 2.24 µM. In the case of `CCOC(=O)c1nc(-c2ccc(Br)cc2)nc2c(Cl)cccc12` [Example 38, ethyl 2-(4-bromophenyl)-8-chloro-quinazoline-4-carboxylate], the IC50 is reported as 1.16 µM. `O=C(NCCCl)c1nc(-c2ccc(Br)cc2)nc2c(Cl)cccc12` [Example 39, 2-(4-Bromophenyl)-8-chloro-N-(2-chloroethyl)quinazoline-4-carboxamide] gave an IC50 of 1.17 µM. For `Cc1nc(-c2ccc(Br)cc2)nc2c(Cl)cccc12` [Example 40, 2-(4-Bromophenyl)-8-chloro-4-methyl-quinazoline], the IC50 was 0.082 µM. In the case of `O=C(O)[C@H]1C[C@@H](OCCOc2ccc(-c3ncc4cccc(Cl)c4n3)cc2)C1` [Example 42, cis-3-[2-[4-(8-Chloroquinazolin-2-yl)phenoxy]ethoxy]cyclobutanecarboxylic acid], the IC50 is reported as 16.9 µM. With `O=C(O)c1nc(-c2ccc(Br)cc2)nc2cc(C(F)(F)F)ccc12` [Example 43, 2-(4-Bromophenyl)-7-(trifluoromethyl)quinazoline-4-carboxylic acid] the IC50 was 12.9 µM.

Source: patent publication US20220348549A1 (Hoffmann-La Roche Inc., priority 2019, published 2022)
